# Source: ChEMBL document CHEMBL4808209 (J Med Chem, 2021)
# pIC50: −log10 of the molar value.
# Experiments:
# Adenosine receptor A2a = Adenosine receptor A2a (Homo sapiens, UniProt P29274); experiment: Inhibition of human adenosine A2A receptor at 0.1 to 1 uM; settings: dose 0.1-1 µM
# Nitric oxide synthase 1 = Nitric oxide synthase 1 (Homo sapiens, UniProt P29475); experiment: Inhibition of NOS (unknown origin) at 0.1 to 1 uM; settings: dose 0.1-1 µM
# CYP2C8 = CYP2C8 (Homo sapiens, UniProt P10632); experiment: Inhibition of CYP2C8 in human liver microsomes using amodiaquine as substrate substrate in presence of NADPH by LC-MS/MS analysis; format: ADME; settings: probe amodiaquine
# [1] = Clearance in cynomolgus monkey at 2 mg/kg, po or 0.5 mg/kg, iv administered as cassette dose measured after 24 hrs relative to hepatic blood flow; format: ADME, organism-based, Macaca fascicularis; settings: in vivo
# [2] = molecular target: Muscarinic acetylcholine receptor M4 (Homo sapiens, UniProt P08173); experiment: Inhibition of human muscarinic M4 receptor at 0.1 to 1 uM; settings: dose 0.1-1 µM
# [3] = AUC in Sprague-Dawley rat at 2 mg/kg, po or 1 mg/kg, iv administered as cassette dose measured after 24 hrs; format: ADME, organism-based; set-up: time 24 hrs, dose 2 mg/kg; settings: in vivo
# [4] = molecular target: 5-hydroxytryptamine receptor 5A (Homo sapiens, UniProt P47898); experiment: Inhibition of human 5HT5A receptor at 0.1 to 1 uM; settings: dose 0.1-1 µM
# [5] = Half life in Beagle dog at 1 mg/kg, iv measured after 24 hrs; format: ADME, organism-based, Canis lupus familiaris; settings: in vivo
# [6] = Clearance in Beagle dog at 1 mg/kg, iv measured after 24 hrs relative to hepatic blood flow; format: ADME, organism-based, Canis lupus familiaris; settings: in vivo
# [7] = Toxicity in SCID mouse xenografted with human KATO III stomach cancer cell line assessed as drug tolerance at 0.03 to 1 mg/kg, po administered once daily for 10 days; format: organism-based; settings: in vivo, 240 h, dose 0.03-1 mg/kg, time 10 day
# D(3) dopamine receptor = D(3) dopamine receptor (Homo sapiens, UniProt P35462); experiment: Inhibition of dopamine D3 receptor (unknown origin) at 0.1 to 1 uM; settings: dose 0.1-1 µM
# [8] = molecular target: 5-hydroxytryptamine receptor 1D (Homo sapiens, UniProt P28221); experiment: Inhibition of 5HT1D receptor (unknown origin) at 0.1 to 1 uM; settings: dose 0.1-1 µM
# [9] = Inhibition of ATP-sensitive potassium channel (unknown origin) at 0.1 to 1 uM; settings: human, dose 0.1-1 µM
# [10] = molecular target: Beta-1 adrenergic receptor (Homo sapiens, UniProt P08588); experiment: Inhibition of human adrenergic beta 1 receptor at 0.1 to 1 uM; settings: dose 0.1-1 µM
# Thromboxane A2 receptor = Thromboxane A2 receptor (Homo sapiens, UniProt P21731); experiment: Inhibition of human thromboxane A2 at 0.1 to 1 uM; settings: dose 0.1-1 µM
# [11] = molecular target: Protein kinase C alpha type (Homo sapiens, UniProt P17252); experiment: Inhibition of human PKCa at 0.1 to 1 uM; settings: dose 0.1-1 µM
# Acetylcholinesterase = Acetylcholinesterase (Homo sapiens, UniProt P22303); experiment: Inhibition of acetylcholinesterase (unknown origin) at 0.1 to 1 uM; settings: dose 0.1-1 µM
# [12] = molecular target: Cysteinyl leukotriene receptor 1 (Homo sapiens, UniProt Q9Y271); experiment: Inhibition of LTD4 (unknown origin) at 0.1 to 1 uM; settings: dose 0.1-1 µM
# [13] = Volume of distribution in Beagle dog at 1 mg/kg, iv measured after 24 hrs; format: ADME, organism-based, Canis lupus familiaris; settings: in vivo, read-out: Vdss
# [14] = molecular target: 5-hydroxytryptamine receptor 6 (Homo sapiens, UniProt P50406); experiment: Inhibition of human 5HT6 receptor at 0.1 to 1 uM; settings: dose 0.1-1 µM
# Histamine H1 receptor = Histamine H1 receptor (Homo sapiens, UniProt P35367); experiment: Inhibition of histamine H1 receptor (unknown origin) at 0.1 to 1 uM; settings: dose 0.1-1 µM
# [15] = molecular target: Muscarinic acetylcholine receptor M2 (Homo sapiens, UniProt P08172); experiment: Inhibition of human muscarinic M2 receptor at 0.1 to 1 uM; settings: dose 0.1-1 µM
# [16] = molecular target: Beta-2 adrenergic receptor (Homo sapiens, UniProt P07550); experiment: Inhibition of human adrenergic beta 2 receptor at 0.1 to 1 uM; settings: dose 0.1-1 µM
# [17] = molecular target: 5-hydroxytryptamine receptor 4 (Homo sapiens, UniProt Q13639); experiment: Inhibition of 5HT4 receptor (unknown origin) at 0.1 to 1 uM; settings: dose 0.1-1 µM
# Mu-type opioid receptor = Mu-type opioid receptor (Homo sapiens, UniProt P35372); experiment: Inhibition of human mu opioid receptor at 0.1 to 1 uM; settings: dose 0.1-1 µM
# [18] = Volume of distribution at steady state in cynomolgus monkey at 2 mg/kg, po or 0.5 mg/kg, iv administered as cassette dose measured after 24 hrs; format: ADME, organism-based, Macaca fascicularis; settings: in vivo, read-out: Vdss
# Substance-P receptor = Substance-P receptor (Homo sapiens, UniProt P25103); experiment: Inhibition of NK-1 (unknown origin) at 0.1 to 1 uM; settings: dose 0.1-1 µM
# [19] = molecular target: 5-hydroxytryptamine receptor 1A (Homo sapiens, UniProt P08908); experiment: Inhibition of human 5HT1A receptor at 0.1 to 1 uM; settings: dose 0.1-1 µM
# Histamine H3 receptor = Histamine H3 receptor (Homo sapiens, UniProt Q9Y5N1); experiment: Inhibition of histamine H3 receptor (unknown origin) at 0.1 to 1 uM; settings: dose 0.1-1 µM
# GABA-B receptor = GABA-B receptor (Homo sapiens, UniProt Q9UBS5+O75899); experiment: Inhibition of GABA-B receptor (unknown origin) at 0.1 to 1 uM; format: protein-complex assay; settings: dose 0.1-1 µM
# hERG (KCNH2) = hERG (KCNH2) (Homo sapiens, UniProt Q12809); experiment: Inhibition of human ERG at 5 uM by patch clamp method relative to control
# [20] = molecular target: Sigma non-opioid intracellular receptor 1 (Homo sapiens, UniProt Q99720); experiment: Inhibition of sigma 1 receptor (unknown origin) at 0.1 to 1 uM; settings: dose 0.1-1 µM
# [21] = Solubility of the compound in simulated gastric fluid; format: physicochemical
# [22] = molecular target: Muscarinic acetylcholine receptor M3 (Homo sapiens, UniProt P20309); experiment: Inhibition of human muscarinic M3 receptor at 0.1 to 1 uM; settings: dose 0.1-1 µM
# [23] = Half life in Sprague-Dawley rat at 2 mg/kg, po or 1 mg/kg, iv administered as cassette dose measured after 24 hrs; format: ADME, organism-based; settings: in vivo
# [24] = molecular target: Neuropeptide Y receptor type 2 (Homo sapiens, UniProt P49146); experiment: Inhibition of human NPY2 at 0.1 to 1 uM; settings: dose 0.1-1 µM
# [25] = molecular target: Muscarinic acetylcholine receptor M5 (Homo sapiens, UniProt P08912); experiment: Inhibition of human muscarinic M5 receptor at 0.1 to 1 uM; settings: dose 0.1-1 µM
# [26] = system: Glutamate [NMDA] receptor; experiment: Inhibition of Glutamate receptor ionotropic NMDA glycine,[…] site (unknown origin) at 0.1 to 1 uM; format: protein-complex assay; settings: human, dose 0.1-1 µM
# [27] = molecular target: Alpha-2C adrenergic receptor (Homo sapiens, UniProt P18825); experiment: Inhibition of human adrenergic alpha 2C receptor at 0.1 to 1 uM; settings: dose 0.1-1 µM
# [28] = Inhibition of calcium channel, Type N (unknown origin) at 0.1 to 1 uM; settings: human, dose 0.1-1 µM
# [29] = Inhibition of Glutamate AMPA site receptor (unknown origin) at 0.1 to 1 uM; settings: human, dose 0.1-1 µM
# [30] = Oral bioavailability in Sprague-Dawley rat at 2 mg/kg administered as cassette dose measured after 24 hrs; format: ADME, organism-based; settings: in vivo
# [31] = Inhibition of calcium activated potassium channel (unknown origin) at 0.1 to 1 uM; settings: human, dose 0.1-1 µM
# CYP2C19 = CYP2C19 (Homo sapiens, UniProt P33261); experiment: Inhibition of CYP2C19 in human liver microsomes using s-mephenytoin as substrate substrate in presence of NADPH by LC-MS/MS analysis; format: ADME; settings: human, liver microsomes, probe s-mephenytoin
# Sequence of CYP2C19 (P33261 whole entry): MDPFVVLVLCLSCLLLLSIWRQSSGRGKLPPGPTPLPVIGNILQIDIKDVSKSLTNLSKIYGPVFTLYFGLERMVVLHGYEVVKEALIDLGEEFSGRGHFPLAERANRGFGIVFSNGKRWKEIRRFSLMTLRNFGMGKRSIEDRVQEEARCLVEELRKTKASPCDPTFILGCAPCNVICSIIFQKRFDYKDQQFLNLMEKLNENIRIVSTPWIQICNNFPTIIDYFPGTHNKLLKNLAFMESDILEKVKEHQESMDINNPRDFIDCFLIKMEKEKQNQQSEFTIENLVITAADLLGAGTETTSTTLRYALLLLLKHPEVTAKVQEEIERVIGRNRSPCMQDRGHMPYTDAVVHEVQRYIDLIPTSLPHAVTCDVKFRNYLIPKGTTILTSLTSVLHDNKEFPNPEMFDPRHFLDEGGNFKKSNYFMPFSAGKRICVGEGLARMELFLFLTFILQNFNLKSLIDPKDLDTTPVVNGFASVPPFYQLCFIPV
# Sequence of CYP2C8 (P10632 whole entry): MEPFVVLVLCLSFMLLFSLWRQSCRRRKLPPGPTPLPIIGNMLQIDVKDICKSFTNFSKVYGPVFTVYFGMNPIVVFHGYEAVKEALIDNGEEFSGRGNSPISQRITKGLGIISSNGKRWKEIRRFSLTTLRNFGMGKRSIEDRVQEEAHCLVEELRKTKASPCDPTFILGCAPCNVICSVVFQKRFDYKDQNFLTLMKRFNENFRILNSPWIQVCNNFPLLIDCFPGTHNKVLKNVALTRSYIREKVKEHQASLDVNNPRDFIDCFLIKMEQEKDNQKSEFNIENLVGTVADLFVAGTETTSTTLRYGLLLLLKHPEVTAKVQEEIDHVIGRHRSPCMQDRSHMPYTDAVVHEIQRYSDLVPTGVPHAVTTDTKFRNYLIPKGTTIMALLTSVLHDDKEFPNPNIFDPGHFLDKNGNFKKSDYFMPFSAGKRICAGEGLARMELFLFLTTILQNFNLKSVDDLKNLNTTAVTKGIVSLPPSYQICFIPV
# Sequence of Muscarinic acetylcholine receptor M5 (P08912 whole entry): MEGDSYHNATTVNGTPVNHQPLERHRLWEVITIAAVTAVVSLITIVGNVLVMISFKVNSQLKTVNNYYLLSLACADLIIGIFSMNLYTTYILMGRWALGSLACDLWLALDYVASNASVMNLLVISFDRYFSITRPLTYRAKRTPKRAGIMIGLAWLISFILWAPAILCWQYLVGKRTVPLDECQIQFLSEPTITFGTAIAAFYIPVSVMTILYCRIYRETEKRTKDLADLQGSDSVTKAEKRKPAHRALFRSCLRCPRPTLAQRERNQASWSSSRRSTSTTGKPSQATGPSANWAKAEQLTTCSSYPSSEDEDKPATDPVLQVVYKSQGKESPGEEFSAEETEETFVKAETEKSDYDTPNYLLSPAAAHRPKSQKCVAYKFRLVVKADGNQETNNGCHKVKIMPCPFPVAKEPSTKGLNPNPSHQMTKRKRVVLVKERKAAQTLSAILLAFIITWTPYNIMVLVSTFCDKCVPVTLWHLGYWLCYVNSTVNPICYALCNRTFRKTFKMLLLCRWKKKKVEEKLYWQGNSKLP
# Sequence of Histamine H1 receptor (P35367 whole entry): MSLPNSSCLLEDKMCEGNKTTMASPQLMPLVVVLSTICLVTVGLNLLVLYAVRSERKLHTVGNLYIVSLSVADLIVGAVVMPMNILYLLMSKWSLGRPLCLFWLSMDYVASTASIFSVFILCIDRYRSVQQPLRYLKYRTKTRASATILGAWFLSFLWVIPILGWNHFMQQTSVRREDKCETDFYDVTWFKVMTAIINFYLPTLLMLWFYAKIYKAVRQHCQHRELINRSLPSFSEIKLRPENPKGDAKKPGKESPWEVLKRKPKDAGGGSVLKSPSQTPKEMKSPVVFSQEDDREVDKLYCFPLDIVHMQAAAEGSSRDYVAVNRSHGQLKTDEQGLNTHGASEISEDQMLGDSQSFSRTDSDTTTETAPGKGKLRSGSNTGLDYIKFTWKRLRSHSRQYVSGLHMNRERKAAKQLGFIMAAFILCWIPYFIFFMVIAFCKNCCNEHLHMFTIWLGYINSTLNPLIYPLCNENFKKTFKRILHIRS
# Sequence of Alpha-2C adrenergic receptor (P18825 whole entry): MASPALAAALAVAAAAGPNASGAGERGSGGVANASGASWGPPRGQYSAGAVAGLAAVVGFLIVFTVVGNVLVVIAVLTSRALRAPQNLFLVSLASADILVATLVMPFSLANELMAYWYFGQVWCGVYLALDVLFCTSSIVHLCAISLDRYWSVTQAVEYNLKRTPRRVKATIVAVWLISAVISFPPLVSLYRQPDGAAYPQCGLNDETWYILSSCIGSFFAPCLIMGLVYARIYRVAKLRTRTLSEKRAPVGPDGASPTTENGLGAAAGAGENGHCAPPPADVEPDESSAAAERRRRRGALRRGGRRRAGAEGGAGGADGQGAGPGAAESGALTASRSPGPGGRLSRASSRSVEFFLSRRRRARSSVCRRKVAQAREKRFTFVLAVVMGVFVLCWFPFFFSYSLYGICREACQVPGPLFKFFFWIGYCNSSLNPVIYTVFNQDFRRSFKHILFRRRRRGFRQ
# Sequence of Cysteinyl leukotriene receptor 1 (Q9Y271 whole entry): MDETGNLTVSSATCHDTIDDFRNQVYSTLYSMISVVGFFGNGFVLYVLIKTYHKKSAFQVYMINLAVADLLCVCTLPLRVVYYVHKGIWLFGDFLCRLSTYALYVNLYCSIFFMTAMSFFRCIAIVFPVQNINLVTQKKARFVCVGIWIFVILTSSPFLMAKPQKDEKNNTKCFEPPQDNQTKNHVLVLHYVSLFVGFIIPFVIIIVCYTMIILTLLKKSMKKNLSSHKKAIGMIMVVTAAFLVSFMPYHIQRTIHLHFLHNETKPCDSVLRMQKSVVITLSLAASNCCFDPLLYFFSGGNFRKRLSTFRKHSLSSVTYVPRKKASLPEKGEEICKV
# Sequence of 5-hydroxytryptamine receptor 6 (P50406 whole entry): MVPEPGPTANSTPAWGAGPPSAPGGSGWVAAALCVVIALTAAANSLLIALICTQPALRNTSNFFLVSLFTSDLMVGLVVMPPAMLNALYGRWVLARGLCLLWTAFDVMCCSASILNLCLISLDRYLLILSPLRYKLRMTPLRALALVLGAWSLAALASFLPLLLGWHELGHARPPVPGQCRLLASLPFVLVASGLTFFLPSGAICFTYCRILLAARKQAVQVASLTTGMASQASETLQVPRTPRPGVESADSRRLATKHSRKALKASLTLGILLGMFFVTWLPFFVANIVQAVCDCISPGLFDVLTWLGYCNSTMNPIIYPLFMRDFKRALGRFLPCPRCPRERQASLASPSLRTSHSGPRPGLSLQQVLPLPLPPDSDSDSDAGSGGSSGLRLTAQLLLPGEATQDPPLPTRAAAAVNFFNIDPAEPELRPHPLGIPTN
# Sequence of Muscarinic acetylcholine receptor M2 (P08172 whole entry): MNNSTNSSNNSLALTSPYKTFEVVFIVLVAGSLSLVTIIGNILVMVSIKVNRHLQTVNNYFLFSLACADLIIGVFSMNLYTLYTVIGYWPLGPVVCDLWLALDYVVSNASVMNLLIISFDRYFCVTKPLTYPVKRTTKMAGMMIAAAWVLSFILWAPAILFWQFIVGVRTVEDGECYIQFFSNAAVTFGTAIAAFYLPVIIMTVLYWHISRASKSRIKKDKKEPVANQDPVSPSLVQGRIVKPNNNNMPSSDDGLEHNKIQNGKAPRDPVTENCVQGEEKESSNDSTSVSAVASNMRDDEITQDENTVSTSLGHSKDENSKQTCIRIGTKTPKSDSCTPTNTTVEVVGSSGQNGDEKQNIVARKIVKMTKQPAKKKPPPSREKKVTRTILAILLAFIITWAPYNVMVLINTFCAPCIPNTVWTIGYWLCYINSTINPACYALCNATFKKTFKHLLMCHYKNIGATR
# Sequence of Beta-2 adrenergic receptor (P07550 whole entry): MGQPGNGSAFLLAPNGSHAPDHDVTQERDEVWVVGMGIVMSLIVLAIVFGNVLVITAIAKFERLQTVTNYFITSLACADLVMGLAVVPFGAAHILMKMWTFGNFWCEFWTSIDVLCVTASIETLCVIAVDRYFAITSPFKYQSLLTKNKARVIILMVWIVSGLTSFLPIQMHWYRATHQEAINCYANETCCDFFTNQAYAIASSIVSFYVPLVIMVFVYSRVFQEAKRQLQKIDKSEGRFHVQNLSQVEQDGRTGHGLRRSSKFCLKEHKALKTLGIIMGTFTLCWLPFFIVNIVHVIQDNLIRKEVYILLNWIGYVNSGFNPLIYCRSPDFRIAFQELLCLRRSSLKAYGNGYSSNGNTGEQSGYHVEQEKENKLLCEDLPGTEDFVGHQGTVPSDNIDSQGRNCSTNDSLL
smiles,measurement,setting,value
CCN1C(=O)N(c2c(F)c(OC)cc(OC)c2F)Cc2cnc3[nH]c(CN4CCOCC4)cc3c21 [PEMIGATINIB],inhibition (INH),Adenosine receptor A2a,Not Active
same,inhibition (INH),Nitric oxide synthase 1,Not Active
same,pIC50,CYP2C8,< 4.60
same,CL,[1],8%
same,inhibition (INH),[2],Not Active
same,AUC at 24 h,[3],7.67 µM·h
same,inhibition (INH),[4],Not Active
same,half-life,[5],15.7 h
same,CL,[6],10%
same,Activity,[7],Non-Toxic
same,inhibition (INH),D(3) dopamine receptor,Not Active
same,inhibition (INH),[8],Not Active
same,inhibition (INH),[9],Not Active
same,inhibition (INH),[10],Not Active
same,inhibition (INH),Thromboxane A2 receptor,Not Active
same,inhibition (INH),[11],Not Active
same,inhibition (INH),Acetylcholinesterase,Not Active
same,inhibition (INH),[12],Not Active
same,Vd,[13],3.49 L/kg
same,inhibition (INH),[14],Not Active
same,inhibition (INH),Histamine H1 receptor,Not Active
same,inhibition (INH),[15],Not Active
same,inhibition (INH),[16],Not Active
same,inhibition (INH),[17],Not Active
same,inhibition (INH),Mu-type opioid receptor,Not Active
same,Vd,[18],0.58 L/kg
same,inhibition (INH),Substance-P receptor,Not Active
same,inhibition (INH),[19],Not Active
same,inhibition (INH),Histamine H3 receptor,Not Active
same,inhibition (INH),GABA-B receptor,Not Active
same,inhibition at 5 µM,hERG (KCNH2),9%
same,inhibition (INH),[20],Not Active
same,solubility,[21],> 6000 µg/mL
same,inhibition (INH),[22],Not Active
same,half-life,[23],4 h
same,inhibition (INH),[24],Not Active
same,inhibition (INH),[25],Not Active
same,inhibition (INH),[26],Not Active
same,inhibition (INH),[27],Not Active
same,inhibition (INH),[28],Not Active
same,inhibition (INH),[29],Not Active
same,bioavailability,[30],> 100%
same,inhibition (INH),[31],Not Active
same,pIC50,CYP2C19,< 4.60
